ChEMBL document CHEMBL1201862, “PubChem BioAssay data set” (2004)
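A five-concentration, 48-hour dose response in 96-well plates underlies each endpoint, interpolated linearly between surrounding concentrations. GI50: concentration for 50% inhibition of growth.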 Calls of active or inactive are those of the source. Rule as the data show it: active = GI50 up to about 1.1 µM and inactive = higher.

How the values were obtained:
Assay in all cases: NCI anticancer screen, dose series, 48 h
M14 = tested on: M14
PC-3 = tested on: PC-3
NCI-H23 = tested on: NCI-H23
HT-29 = tested on: HT-29
UO-31 = tested on: UO-31
EKVX = tested on: EKVX
UACC-62 = tested on: UACC-62
HOP-62 = tested on: HOP-62
SK-MEL-5 = tested on: SK-MEL-5
MDA-MB-435 = tested on: MDA-MB-435
COLO 205 = tested on: COLO 205
SNB-19 = tested on: SNB-19
IGROV-1 = tested on: IGROV-1
HOP-92 = tested on: HOP-92
NCI-H460 = tested on: NCI-H460
OVCAR-3 = tested on: OVCAR-3
SF-268 = tested on: SF-268
TK-10 = tested on: TK-10
NCI-H522 = tested on: NCI-H522

Measured: GI50

O=C(c1ccc(Cl)cc1Cl)N(C(=O)N1CCC(c2ccccc2)CC1)c1ccccc1
inactive: M14 > 100 µM | PC-3 91.2 µM | NCI-H23 > 100 µM | HT-29 > 100 µM | UO-31 > 100 µM | EKVX 86.9 µM | UACC-62 79.4 µM | HOP-62 > 100 µM | SK-MEL-5 37.3 µM | MDA-MB-435 55 µM | COLO 205 43.3 µM | SNB-19 > 100 µM | IGROV-1 92.9 µM | HOP-92 > 100 µM | NCI-H460 > 100 µM | OVCAR-3 > 100 µM

O=C(CC(=O)C1=CNc2ccccc2S1)C(=O)Nc1ccc(Cl)cc1
inactive: SF-268 > 50 µM | M14 > 50 µM | NCI-H23 > 50 µM | HT-29 > 50 µM | UO-31 > 50 µM | TK-10 > 50 µM | EKVX > 50 µM | UACC-62 > 50 µM | HOP-62 > 50 µM | SK-MEL-5 > 50 µM | COLO 205 > 50 µM | SNB-19 > 50 µM | IGROV-1 > 50 µM | HOP-92 > 50 µM | NCI-H460 > 50 µM | NCI-H522 > 50 µM | OVCAR-3 > 50 µM

NC1=NC2=c3ccccc3=C(c3cnccn3)C2(c2cnccn2)c2ccccc21 (stereo unspecified)
inactive: SF-268 74.1 µM | M14 > 100 µM | NCI-H23 91.4 µM | HT-29 89.5 µM | UO-31 44.4 µM | TK-10 87.9 µM | EKVX 44.7 µM | UACC-62 > 100 µM | HOP-62 > 100 µM | SK-MEL-5 34 µM | COLO 205 32.4 µM | SNB-19 48.2 µM | IGROV-1 > 100 µM | HOP-92 37.9 µM | NCI-H460 58.6 µM | NCI-H522 49.5 µM | OVCAR-3 13.8 µM

Cc1nc2c(nc1C)C(=O)C1=C(C2=O)C2C=CC1CC2
inactive: SF-268 5.42 µM | M14 12.8 µM | NCI-H23 4.04 µM | HT-29 13.9 µM | UO-31 12.6 µM | TK-10 28.8 µM | EKVX 7 µM | UACC-62 2.86 µM | HOP-62 22.3 µM | SK-MEL-5 2.05 µM | COLO 205 14.9 µM | SNB-19 32.6 µM | IGROV-1 2.63 µM | HOP-92 1.97 µM | NCI-H460 17.9 µM | NCI-H522 4.35 µM | OVCAR-3 5.83 µM

COc1ccccc1C(O)(c1ccccc1)C(O)(c1ccccc1)c1ccccc1OC (stereo unspecified)
inactive: SF-268 > 100 µM | M14 > 100 µM | NCI-H23 > 100 µM | HT-29 > 100 µM | UO-31 > 100 µM | TK-10 > 100 µM | EKVX > 100 µM | UACC-62 > 100 µM | HOP-62 > 100 µM | SK-MEL-5 > 100 µM | COLO 205 > 100 µM | SNB-19 > 100 µM | IGROV-1 > 100 µM | HOP-92 20.3 µM | NCI-H460 > 100 µM | NCI-H522 > 100 µM | OVCAR-3 > 100 µM

NC(=S)N/N=C(\CCC(=O)Nc1ccccc1[N+](=O)[O-])CC(=O)c1ccco1
inactive: SF-268 > 100 µM | M14 > 100 µM | NCI-H23 > 100 µM | HT-29 > 100 µM | UO-31 > 100 µM | TK-10 > 100 µM | EKVX > 100 µM | UACC-62 > 100 µM | HOP-62 > 100 µM | SK-MEL-5 > 100 µM | COLO 205 > 100 µM | SNB-19 > 100 µM | IGROV-1 > 100 µM | HOP-92 > 100 µM | NCI-H460 > 100 µM | NCI-H522 > 100 µM | OVCAR-3 > 100 µM

O=C(N/N=C1\C(=O)N(c2nccs2)C(=O)C(=O)C1c1nc2ccccc2s1)c1ccccc1O (stereo unspecified)
inactive: SF-268 12.1 µM | M14 > 100 µM | NCI-H23 29.5 µM | HT-29 > 100 µM | UO-31 8.22 µM | TK-10 > 100 µM | EKVX > 100 µM | UACC-62 31.3 µM | HOP-62 23.9 µM | SK-MEL-5 47.5 µM | COLO 205 > 100 µM | SNB-19 60 µM | IGROV-1 25.9 µM | HOP-92 > 100 µM | NCI-H460 53.3 µM | NCI-H522 30.2 µM | OVCAR-3 35.9 µM

CN/N=C(/Cc1occc(=O)c1O)C(=O)Nc1ccccc1C
inactive: SF-268 > 100 µM | M14 > 100 µM | NCI-H23 > 100 µM | HT-29 > 100 µM | UO-31 > 100 µM | TK-10 > 100 µM | EKVX > 100 µM | UACC-62 > 100 µM | HOP-62 > 100 µM | SK-MEL-5 > 100 µM | COLO 205 > 100 µM | SNB-19 > 100 µM | IGROV-1 > 100 µM | HOP-92 20.4 µM | NCI-H460 > 100 µM | NCI-H522 > 100 µM | OVCAR-3 > 100 µM

c1ccc([P+](c2ccccc2)(c2ccccc2)C2Sc3ccccc3S2)cc1
inactive: SF-268 17.2 µM | M14 15.3 µM | NCI-H23 10.5 µM | HT-29 23 µM | UO-31 16.1 µM | TK-10 21 µM | EKVX 22.9 µM | UACC-62 13.8 µM | HOP-62 23.1 µM | SK-MEL-5 17.7 µM | COLO 205 16.7 µM | SNB-19 27.7 µM | IGROV-1 > 100 µM | HOP-92 > 100 µM | NCI-H460 23.3 µM | NCI-H522 14.9 µM | OVCAR-3 14.5 µM

COC(=O)C(=O)C(C#N)c1nc2ccccc2s1 (stereo unspecified)
inactive: SF-268 > 100 µM | M14 > 100 µM | NCI-H23 > 100 µM | HT-29 66.4 µM | UO-31 39.8 µM | TK-10 > 100 µM | EKVX > 100 µM | UACC-62 > 100 µM | HOP-62 > 100 µM | SK-MEL-5 > 100 µM | COLO 205 > 100 µM | SNB-19 > 100 µM | IGROV-1 > 100 µM | HOP-92 > 100 µM | NCI-H460 63.4 µM | NCI-H522 > 100 µM | OVCAR-3 > 100 µM

Cc1cc(Br)c(N2C3=C(CC4=C2CCCC4=O)C(=O)CCC3)c(Br)c1
inactive: SF-268 75.5 µM | M14 > 100 µM | PC-3 18.6 µM | NCI-H23 50.9 µM | HT-29 42.3 µM | UO-31 60.5 µM | TK-10 > 100 µM | EKVX 31 µM | UACC-62 63.2 µM | SK-MEL-5 38.7 µM | SNB-19 > 100 µM | IGROV-1 > 100 µM | HOP-92 25.6 µM | NCI-H460 31.5 µM | OVCAR-3 42.9 µM

CN=[S+]([O-])(c1ccccc1)c1ccccc1
inactive: SF-268 > 100 µM | M14 > 100 µM | NCI-H23 > 100 µM | HT-29 > 100 µM | UO-31 > 100 µM | TK-10 > 100 µM | EKVX > 100 µM | UACC-62 > 100 µM | HOP-62 > 100 µM | SK-MEL-5 > 100 µM | COLO 205 > 100 µM | SNB-19 > 100 µM | IGROV-1 > 100 µM | HOP-92 > 100 µM | NCI-H460 > 100 µM | NCI-H522 > 100 µM | OVCAR-3 > 100 µM
